Data reported in ChEMBL document CHEMBL1152311, “A multipronged approach to the study of peruvian ethnomedicinal plants: a legacy of the ICBG-Peru Project” (J Nat Prod, 2009).
Calls of active or inactive are those of the source. The rule behind the calls is not given here.

Legend:
[1] = Cytotoxicity against mouse 3T3 cells; assay type: cell-based; details: BALB/3T3 clone A31 cells
NCI-H460 = experiment: Cytotoxicity against human H460 cells; assay type: functional
DU-145 = experiment: Cytotoxicity against human DU145 cells; assay type: functional
MCF7 = experiment: Cytotoxicity against human MCF7 cells; assay type: functional
M14 = experiment: Cytotoxicity against human M14 cells; assay type: functional
HT-29 = experiment: Cytotoxicity against human HT-29 cells; assay type: functional
PC-3 = experiment: Cytotoxicity against human PC3 cells; assay type: functional
K562 = experiment: Cytotoxicity against human K562 cells; assay type: functional
[2] = Cytotoxicity against african green monkey Vero cells; assay type: cell-based; details: chlorocebus sabaeus
Trypanosoma cruzi = experiment: Antitrypanosomal activity against Trypanosoma cruzi Tulahuen C4 transfected with beta-galactosidase; assay type: functional
ME-180 = experiment: Cytotoxicity against human ME180 cells; assay type: functional
Mus musculus = species on record: Mus musculus; experiment: Wound healing activity in mouse; assay type: functional
Leishmania amazonensis = experiment: Antileishmanial activity against Leishmania amazonensis axenic amastigotes; assay type: functional
[3] = system: Mycobacterium tuberculosis; experiment: Antituberculosis activity against Mycobacterium tuberculosis H37Rv; assay type: functional, organism-based
Saccharomyces cerevisiae [4] = experiment: Antimicrobial activity against Saccharomyces cerevisiae RS321; assay type: functional
Saccharomyces cerevisiae [5] = experiment: Antimicrobial activity against Saccharomyces cerevisiae RS322; assay type: functional

Row | Structure (SMILES) | GI50 [1] | GI50 (NCI-H460) | GI50 (DU-145) | GI50 (MCF7) | GI50 (M14) | GI50 (HT-29) | GI50 (PC-3) | GI50 (K562) | GI50 [2] | Activity (Trypanosoma cruzi) | GI50 (ME-180) | ED50 (Mus musculus) | Activity (Leishmania amazonensis) | Activity [3] | IC12 (Saccharomyces cerevisiae [4]) | IC12 (Saccharomyces cerevisiae [5])
1 | COc1ccc(CCC(=O)c2c(O)cc(O)cc2OC)cc1 | 141 µM | 148 µM | 138 µM | 75.7 µM | 133 µM | 117 µM | 153 µM | 24.5 µM | 134 µM | – | – | – | – | – | – | –
2 | C=CCOc1cc(OC)c(C(=O)/C=C/c2ccc(OC)cc2)c(OCC=C)c1 | 107 µM | 52.3 µM | 54.9 µM | 51 µM | 72.2 µM | 74.3 µM | 47.3 µM | 43.4 µM | – | 1.5 µM | – | – | – | – | – | –
3 | CC(C)=CCC[C@](C)(O)[C@H]1CC=C(C)CC1 | 54.7 µM | 32.8 µM | 25.8 µM | 30 µM | 15.1 µM | 28.9 µM | 28.5 µM | 40.5 µM | – | – | 18.2 µM | 155 mg/kg | – | – | – | –
4 | C[C@H](C/C=C\C(C)(C)OO)[C@H]1CC[C@@]2(C)[C@@H]3CC[C@H]4C(C)(C)[C@@H](O)CC[C@@]45C[C@@]35CC[C@]12C | 82.6 µM | 67.4 µM | 78.7 µM | > 136 µM | 58.6 µM | 65.2 µM | > 136 µM | 65.2 µM | > 136 µM | – | – | – | 5.2 µM | inactive | – | –
5 | C/C=C1/C(=O)O[C@]23C=C[C@@H]4C(C(=O)OC)=CO[C@H](O[C@@H]12)[C@@H]43 [PLUMERICIN] | 431 µM | 276 µM | > 430 µM | > 430 µM | – | > 430 µM | – | – | – | – | > 430 µM | – | 5 µM | inactive | 241 µM | –
6 | COC(=O)C1=CO[C@H](C)[C@@H]2CN3CC[C@@]4(C(=O)Nc5ccccc54)[C@H]3C[C@@H]12 [UNCARINE E] | 62.4 µM | 46.1 µM | 114 µM | – | – | – | – | – | – | – | 67.9 µM | – | – | – | 326 µM | 380 µM
